One assay addresses KRAS Q61H (Homo sapiens (Human), UniProt P01116+P62937, Q61H). Description: Ras-Raf (BRAF RBD) disruption / FRET / MOA assay, KRAS Q61H. The following applies: Ras-Raf disruption/FRET/MOA assay; class symbols; read-out: KRAS Q61H FRET data IC50. It counts as biochemical. In short, it runs like this:
(§1)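 TR-FRET disruption of nucleotide-loaded Ras binding to BRAF RBD via compound-driven ternary complex with cyclophilin A. Compound as 10-point 3-fold series from 30 μM final, 3 h at 25° C, then anti-His Eu-W1024 (10 nM) and anti-GST allophycocyanin (50 nM) for 1.5 h. IC50 from decreased FRET ratio versus DMSO.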

The target of a further assay is KRAS G13D (Homo sapiens (Human), UniProt P01116+P62937, G13D). Description: Ras-Raf (BRAF RBD) disruption / FRET / MOA assay, KRAS G13D. The class given is biochemical. An outline of the steps:
(§2)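 Compounds, top final concentration 30 μM in 10-point 3-fold series, incubated 3 hours at 25° C with nucleotide-loaded Ras, cyclophilin A and BRAF RBD.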

Assay [1] relates to NCI-H358 cells (K-Ras G12C). The experiment in a line: Potency assay: pERK in NCI-H358 cells. It counts as cell-based, human. Conditions: Homo sapiens, NCI-H358; H358 KRAS G12C; read-out: pERK EC50. In short, it runs like this: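 pERK decrease read by AlphaLISA SureFire p-ERK1/2 or In-Cell Western after 4 h compound exposure at 37 °C, 5% CO2.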
The target of another assay is K-Ras G13C (Homo sapiens (Human), UniProt P01116+P62937, G13C). Description: Ras-Raf (BRAF RBD) disruption / FRET / MOA assay, KRAS G13C. It counts as biochemical. Conditions: KRAS G13C; Ras-Raf disruption/FRET/MOA assay; read-out: IC50* KRAS G13C FRET data. An outline of the steps:
as §2

The next assay deals with NRAS WT (Homo sapiens (Human), UniProt P01111+P62937). Description: Ras-Raf (BRAF RBD) disruption / FRET / MOA assay, NRAS WT. The class given is biochemical. Conditions: read-out: IC50* NRAS WT FRET data. An outline of the steps: as §1
Sequence of NRAS WT (P01111 whole entry): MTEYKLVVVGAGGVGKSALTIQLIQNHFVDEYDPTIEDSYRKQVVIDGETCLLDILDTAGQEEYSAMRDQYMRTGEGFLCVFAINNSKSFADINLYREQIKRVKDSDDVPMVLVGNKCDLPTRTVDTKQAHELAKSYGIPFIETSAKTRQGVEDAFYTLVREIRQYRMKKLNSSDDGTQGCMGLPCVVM
Sequence of NRAS WT (P62937 whole entry): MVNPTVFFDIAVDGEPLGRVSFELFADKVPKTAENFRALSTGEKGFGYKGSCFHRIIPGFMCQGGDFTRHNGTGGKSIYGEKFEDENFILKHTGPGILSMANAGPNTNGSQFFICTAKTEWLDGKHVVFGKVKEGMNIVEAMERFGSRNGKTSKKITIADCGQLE
For another assay, the target named is KRAS G12V (Homo sapiens (Human), UniProt P01116+P62937, G12V). The experiment in a line: Ras-Raf (BRAF RBD) disruption / FRET / MOA assay, KRAS G12V. The following applies: read-out: IC50* KRAS G12V FRET data. It counts as biochemical. In short, it runs like this: as §2
Sequence of KRAS G12V (P01116-2 other isoform, or with tags, fused parts or gaps G12V): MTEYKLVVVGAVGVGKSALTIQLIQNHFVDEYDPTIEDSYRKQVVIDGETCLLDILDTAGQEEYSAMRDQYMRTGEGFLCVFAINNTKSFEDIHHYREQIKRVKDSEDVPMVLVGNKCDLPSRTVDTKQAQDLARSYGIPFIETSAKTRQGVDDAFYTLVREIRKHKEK
Sequence of KRAS G12V (P62937 whole entry): as the sequence (P62937 whole entry) above
A further assay has as its target KRAS WT (Homo sapiens (Human), UniProt P01116+P62937). The experiment in a line: Ras-Raf (BRAF RBD) disruption / FRET / MOA assay, KRAS WT. Conditions: read-out: IC50* KRAS WT FRET data. The class given is biochemical. An outline of the steps:
as §2

The mark [2] stands for this setting: read-out: IC50* KRAS G13D FRET data.

Where two headings read alike, the source gives them in different places. Some results are limits rather than exact numbers.

This passage reports IC50 and EC50 results from US11566007B2, “Ras inhibitors” (Revolution Medicines, Inc., priority 2019, dated 2023).

Sequence of KRAS WT (P01116-2 other isoform, or with tags, fused parts or gaps): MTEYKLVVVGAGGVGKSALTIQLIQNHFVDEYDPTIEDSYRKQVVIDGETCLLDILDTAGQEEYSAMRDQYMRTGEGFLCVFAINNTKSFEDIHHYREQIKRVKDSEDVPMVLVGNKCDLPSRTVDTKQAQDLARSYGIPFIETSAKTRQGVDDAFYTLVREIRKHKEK
Sequence of KRAS WT (P62937 whole entry): as the sequence (P62937 whole entry) above
Sequence of KRAS Q61H (P01116-2 other isoform, or with tags, fused parts or gaps Q61H): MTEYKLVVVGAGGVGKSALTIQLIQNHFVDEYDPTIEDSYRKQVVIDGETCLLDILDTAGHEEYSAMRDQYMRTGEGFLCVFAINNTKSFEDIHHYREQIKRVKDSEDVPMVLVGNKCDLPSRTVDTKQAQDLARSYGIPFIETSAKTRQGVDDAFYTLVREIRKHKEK
Sequence of KRAS Q61H (P62937 whole entry): as the sequence (P62937 whole entry) above
Sequence of KRAS G13D (P01116-2 other isoform, or with tags, fused parts or gaps G13D): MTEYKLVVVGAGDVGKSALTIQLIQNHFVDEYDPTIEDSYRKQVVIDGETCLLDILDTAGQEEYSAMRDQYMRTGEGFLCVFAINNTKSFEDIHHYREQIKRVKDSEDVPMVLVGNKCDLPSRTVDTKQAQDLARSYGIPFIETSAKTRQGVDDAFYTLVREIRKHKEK
Sequence of KRAS G13D (P62937 whole entry): as the sequence (P62937 whole entry) above
Sequence of K-Ras G13C (P01116-2 other isoform, or with tags, fused parts or gaps G13C): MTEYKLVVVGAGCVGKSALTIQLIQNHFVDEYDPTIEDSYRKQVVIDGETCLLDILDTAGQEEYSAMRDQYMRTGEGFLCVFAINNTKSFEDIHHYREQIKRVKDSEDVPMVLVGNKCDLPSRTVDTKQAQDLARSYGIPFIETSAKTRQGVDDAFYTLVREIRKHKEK
Sequence of K-Ras G13C (P62937 whole entry): as the sequence (P62937 whole entry) above

`CO[C@@H](C)c1ncccc1-c1c2c3cc(ccc3n1CC(F)(F)F)-c1nc(ns1)C[C@H](NC(=O)[C@@H](COC1CN(C(=O)C#CC(C)(C)N(C)C)C1)C(C)C)C(=O)N1CCC[C@H](N1)C(=O)OCC(C)(C)C2` (atropisomer, axis not shown) [Example A590, (2R)-2-(((1-(4-(dimethylamino)-4-methylpent-2-ynoyl)azetidin-3-yl)oxy)methyl)-N-((6^3S,4S,Z)-1^2-(2-((S)-1-methoxyethyl)pyridin-3-yl)-10,10-dimethyl-5,7-dioxo-1^1-(2,2,2-trifluoroethyl)-6^1,6^2,6^3,6^4,6^5,6^6-hexahydro-1^1H-8-oxa-2(5,3)-thiadiazola-1(5,3)-indola-6(1,3)-pyridazinacycloundecaphane-4-yl)-3-methylbutanamide]: the IC50 is 1000 to 10000 nM on KRAS Q61H; > 10000 nM at KRAS G13D (setting [2]); 1000 to 10000 nM at K-Ras G13C; 1000 to 10000 nM on NRAS WT; 1000 to 10000 nM on KRAS G12V; 1000 to 10000 nM at KRAS WT. In assay [1], the EC50 is < 5000 nM.
On to `C=CC(=O)N1CCO[C@@]2(CCN(C(=O)N(C)[C@H](C(=O)N[C@H]3Cc4nc(cs4)-c4ccc5c(c4)c(c(-c4cccnc4[C@H](C)OC)n5CC(F)(F)F)CC(C)(C)COC(=O)[C@@H]4CCCN(N4)C3=O)C(C)C)C2)C1` (atropisomer, axis not shown) [Example A594], for which the IC50 lay in the range of 10 to 100 nM on KRAS Q61H; 100 to 1000 nM against KRAS G13D (IC50* KRAS G13D FRET data); 10 to 100 nM at K-Ras G13C; 10 to 100 nM on NRAS WT; 100 to 1000 nM on KRAS G12V; 10 to 100 nM on KRAS WT. Moreover, the EC50 in assay [1] is < 5000 nM.
With `C=CC(=O)N1CCO[C@H]2CN(C(=O)N(C)[C@H](C(=O)N[C@H]3Cc4cccc(n4)-c4ccc5c(c4)c(c(-c4cccnc4[C@H](C)OC)n5CC(F)(F)F)CC(C)(C)COC(=O)[C@@H]4CCCN(N4)C3=O)C(C)C)C[C@H]21` (atropisomer, axis not shown) [Example A595], the concentration for half-maximal inhibition (IC50) on KRAS Q61H lay within 100 to 1000 nM; at KRAS G13D (setting [2]), 1000 to 10000 nM; at K-Ras G13C, 10 to 100 nM; on NRAS WT it was 100 to 1000 nM; on KRAS G12V, 1000 to 10000 nM; on KRAS WT, 100 to 1000 nM. For the same compound, in assay [1], the half-maximal effective concentration (EC50) was < 5000 nM.
Consider `C=CC(=O)N1CCO[C@H]2CN(C(=O)N(C)[C@H](C(=O)N[C@H]3Cc4cccc(n4)-c4ccc5c(c4)c(c(-c4cccnc4[C@H](C)OC)n5CC)CC(C)(C)COC(=O)[C@@H]4CCCN(N4)C3=O)C(C)C)C[C@H]21` (atropisomer, axis not shown) [Example A597], for which the IC50 on KRAS Q61H lay within 100 to 1000 nM; on KRAS G13D (setting [2]), 1000 to 10000 nM; at K-Ras G13C, 10 to 100 nM; at NRAS WT, 1000 to 10000 nM; at KRAS G12V, 1000 to 10000 nM; on KRAS WT, 1000 to 10000 nM. In addition, the EC50 in assay [1] was < 5000 nM.
Turning to `C=CC(=O)N1CCO[C@H]2CN(C(=O)N(C)[C@H](C(=O)N[C@H]3Cc4cccc(c4)-c4ccc5c(c4)c(c(-c4cccnc4[C@H](C)OC)n5CC)CC(C)(C)COC(=O)[C@@H]4CCCN(N4)C3=O)C(C)C)C[C@H]21` (atropisomer, axis not shown) [Example A610], the IC50 fell in the range of 100 to 1000 nM at KRAS Q61H; 1000 to 10000 nM at KRAS G13D (setting [2]); 10 to 100 nM at K-Ras G13C; 100 to 1000 nM on NRAS WT; 1000 to 10000 nM at KRAS G12V; 100 to 1000 nM at KRAS WT. Moreover, the EC50 in assay [1] is < 5000 nM.
Take `C=CC(=O)N1CC2(CCN2C(=O)N(C)[C@H](C(=O)N[C@H]2Cc3nc(n(C)n3)-c3ccc4c(c3)c(c(-c3cccnc3[C@H](C)OC)n4CC)CC(C)(C)COC(=O)[C@@H]3CCCN(N3)C2=O)C(C)C)C1` (atropisomer, axis not shown) [Example A612]: the IC50 on KRAS Q61H was in the range of 10 to 100 nM; at KRAS G13D (setting [2]), 100 to 1000 nM; on K-Ras G13C it was 100 to 1000 nM; at NRAS WT, 10 to 100 nM; on KRAS G12V, 100 to 1000 nM; on KRAS WT, 100 to 1000 nM. Moreover, the EC50 in assay [1] was < 5000 nM.
